These results are taken from article PMC6271681, “Discovery of Novel c-Met Inhibitors Bearing a 3-Carboxyl Piperidin-2-one Scaffold” (Molecules, 2014).

One test concerns the target c-Met kinase (Homo sapiens, UniProt P08581). In words: c-Met kinase assay (ELISA, purified recombinant protein). Type of test: biochemical. The note with it: for inhibition at 1 µM: read-out: c-Met inhibition rate @1 μM; for inhibition at 10 µM / c-Met inhibition rate @10 μM: compound at 10 μM; for inhibition at 10 µM: read-out: c-Met inhibition rate @10 μM; for IC50: ELISA, poly(Glu,Tyr)4:1 substrate, two separate experiments. The method, then:
The effects of indicated compound on the activities of c-Met kinases were determined using enzyme-linked immunosorbent assays (ELISAs) with purified recombinant proteins. Briefly, 20 μg/mL poly (Glu,Tyr)4:1 (Sigma, St. Louis, MO, USA) was pre-coated in 96-well plates as a substrate. A 50-μL aliquot of 10 μmol/L ATP solution diluted in kinase reaction buffer (50 mmol/L HEPES [pH 7.4], 50 mmol/L MgCl2, 0.5 mmol/L MnCl2, 0.2 mmol/L Na3VO4, and 1 mmol/L DTT) was added to each well; 1 μL of various concentrations of indicated compound diluted in 1% DMSO (v/v) (Sigma) were then added to each reaction well. DMSO (1%, v/v) was used as the negative control. The kinase reaction was initiated by the addition of purified c-Met tyrosine kinase proteins diluted in 49 μL of kinase reaction buffer. After incubation for 60 min at 37 °C, the plate was washed three times with phosphate-buffered saline (PBS) containing 0.1% Tween 20 (T-PBS). Anti-phosphotyrosine (PY99) antibody (100 μL; 1:500, diluted in 5 mg/mL BSA T-PBS) was then added. After a 30-min incubation at 37 °C, the plate was washed three times, and 100 μL horseradish peroxidase-conjugated goat anti-mouse IgG (1:2000, diluted in 5 mg/mL BSA T-PBS) was added. The plate was then incubated at 37 °C for 30 min and washed 3 times. A 100-μL aliquot of a solution containing 0.03% H2O2 and 2 mg/ml o-phenylenediamine in 0.1 mol/L citrate buffer (pH 5.5) was added. The reaction was terminated by the addition of 50 μL of 2 mol/L H2SO4 as the color changed, and the plate was analyzed using a multi-well spectrophotometer (SpectraMAX 190, Molecular Devices, Sunnyvale, CA, USA) at 490 nm. […] The IC50 values were calculated from the inhibition curves in two separate experiments.
A general note: An ELISA detects its analyte on a solid surface through an enzyme-linked reagent.

The next test deals with MKN45 cells. The experiment in a line: Cell proliferation assay (SRB, 72 h). Type of test: cell-based. The following applies: MKN-45, MKN45 human gastric cancer cell line with constitutively active c-Met. The method, then:
Cells were seeded in 96-well tissue culture plates. On the next day, the cells were exposed to various concentrations of compounds and further cultured for 72 h. Cell proliferation was then determined using sulforhodamine B (SRB, Sigma, St. Louis, MO, USA). The IC50 values were calculated by concentration-response curve fitting using the four-parameter method.

Another test has as its system c-Met. The following applies: in Figure 2; cited from earlier work.
The mark [1] stands for this setting: compound at 1 μM, printed in the c-Met IC50 column.
Setting [2] is: printed in the c-Met IC50 column.

c-Met kinase, sequence (P08581 25-1390): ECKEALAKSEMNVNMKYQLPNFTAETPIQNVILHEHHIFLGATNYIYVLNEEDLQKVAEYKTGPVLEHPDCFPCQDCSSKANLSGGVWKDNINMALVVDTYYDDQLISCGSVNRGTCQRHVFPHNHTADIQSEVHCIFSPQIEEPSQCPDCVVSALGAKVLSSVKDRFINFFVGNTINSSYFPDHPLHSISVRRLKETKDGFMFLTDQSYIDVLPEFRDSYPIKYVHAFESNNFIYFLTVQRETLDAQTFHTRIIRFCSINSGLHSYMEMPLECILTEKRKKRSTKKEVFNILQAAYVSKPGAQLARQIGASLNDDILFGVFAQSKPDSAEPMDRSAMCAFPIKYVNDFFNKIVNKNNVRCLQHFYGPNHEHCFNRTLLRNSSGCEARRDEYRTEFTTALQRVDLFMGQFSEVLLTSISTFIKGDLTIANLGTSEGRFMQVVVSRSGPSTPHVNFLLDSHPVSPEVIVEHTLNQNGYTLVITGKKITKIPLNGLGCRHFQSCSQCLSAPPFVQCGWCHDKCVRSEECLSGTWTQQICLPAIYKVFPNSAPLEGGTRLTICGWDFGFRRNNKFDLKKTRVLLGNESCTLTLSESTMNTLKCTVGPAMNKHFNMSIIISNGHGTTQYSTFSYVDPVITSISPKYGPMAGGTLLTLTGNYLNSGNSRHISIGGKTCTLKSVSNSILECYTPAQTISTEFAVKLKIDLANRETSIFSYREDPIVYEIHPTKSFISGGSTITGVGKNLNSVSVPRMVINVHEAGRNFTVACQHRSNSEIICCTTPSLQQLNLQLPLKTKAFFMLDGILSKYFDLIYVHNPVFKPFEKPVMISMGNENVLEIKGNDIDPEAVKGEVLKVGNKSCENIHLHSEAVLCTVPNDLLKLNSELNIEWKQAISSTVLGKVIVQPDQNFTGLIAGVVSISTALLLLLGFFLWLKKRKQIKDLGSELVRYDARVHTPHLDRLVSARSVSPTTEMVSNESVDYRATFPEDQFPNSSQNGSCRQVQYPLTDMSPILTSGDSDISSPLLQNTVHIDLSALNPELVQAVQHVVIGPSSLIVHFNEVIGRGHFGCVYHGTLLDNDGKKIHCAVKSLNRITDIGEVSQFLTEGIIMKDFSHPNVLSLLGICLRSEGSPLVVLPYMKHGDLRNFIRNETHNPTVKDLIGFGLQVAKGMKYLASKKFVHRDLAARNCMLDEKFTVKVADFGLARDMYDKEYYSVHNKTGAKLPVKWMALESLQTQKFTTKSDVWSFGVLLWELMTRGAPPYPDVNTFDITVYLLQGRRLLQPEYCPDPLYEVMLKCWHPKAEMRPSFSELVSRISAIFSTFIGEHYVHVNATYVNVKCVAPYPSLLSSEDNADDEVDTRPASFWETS

As a reminder, the inhibition is how much of the control response was suppressed. In the case of `NC(=O)c1nccc(Oc2ccc(NC(=O)C3(Cl)CCCN(c4ccc(F)cc4)C3=O)cc2F)c1Cl` (centres unmarked) [Compound 15b, 3-Chloro-4-(4-(3-chloro-1-(4-fluorophenyl)-2-oxopiperidine-3-carboxamido)-2-fluorophenoxy)-picolinamide], the inhibition at 1 µM at c-Met kinase (setting [1]) amounted to 38.7%. Further, the inhibition at 10 µM on c-Met kinase (setting [2]) amounted to 90.2%. For orientation: IC50 means the concentration that gives 50% inhibition. In the case of `CCCCC1(C(=O)Nc2ccc(Oc3ccnc4cc(OC)c(OC)cc34)c(F)c2)CCCN(c2ccc(F)cc2)C1=O` (centres unmarked) [Compound 20e, N-(4-((6,7-dimethoxyquinolin-4-yl)oxy)-3-fluorophenyl)-3-butyl-1-(4-fluorophenyl)-2-oxopiperidine-3-carboxamide], the half-inhibitory concentration (IC50) at c-Met kinase was found to be 0.064 ± 0.0108 µM; with MKN45 cells, 16 ± 0.8 µM. On to “N-(4-((7H-pyrrolo[2,3-d]pyrimidin-4-yl)oxy)-3-fluorophenyl)-3-chloro-1-(4-fluorophenyl)-2-oxo-piperidine-3-carboxamide [Compound 17b]”, for which the “c-Met inhibition rate @10 μM” value on c-Met kinase (setting [2]) was 15.4%@10 μM. On to `CCC1(C(=O)Nc2ccc(Oc3ccnc4cc(OC)c(OC)cc34)c(F)c2)CCCN(c2ccc(F)cc2)C1=O` (centres unmarked) [Compound 20d, N-(4-((6,7-dimethoxyquinolin-4-yl)oxy)-3-fluorophenyl)-3-ethyl-1-(4-fluorophenyl)-2-oxopiperidine-3-carboxamide], for which the IC50 on c-Met kinase is 0.0191 ± 0.0045 µM; with MKN45 cells it was 2.95 ± 0.12 µM. For “N-(4-((7H-pyrrolo[2,3-d]pyrimidin-4-yl)oxy)-3-fluorophenyl)-1-(4-fluorophenyl)-2-oxopiperidine-3-carboxamide [Compound 17a]”, at c-Met kinase (setting [1]), the “c-Met inhibition rate @1 μM” value turned out to be 41.9%@1 μM. The “c-Met inhibition rate @10 μM” value at c-Met kinase (setting [2]) stood at 70.7%@10 μM. In the case of `COc1cc2nccc(Oc3ccc(NC(=O)C4CCCN(c5ccc(F)cc5)C4=O)cc3F)c2cc1OC` (centres unmarked) [Compound 20a, N-(4-((6,7-dimethoxyquinolin-4-yl)oxy)-3-fluorophenyl)-1-(4-fluorophenyl)-2-oxopiperidine-3-carbox-amide], at c-Met kinase (setting [2]), the inhibition at 10 µM was found to be 38.4%.

For the compound `COc1cc2nccc(Oc3ccc(NC(=O)C4(C)CCCN(c5ccc(F)cc5)C4=O)cc3F)c2cc1OC` (centres unmarked) [Compound 20c, N-(4-((6,7-dimethoxyquinolin-4-yl)oxy)-3-fluorophenyl)-1-(4-fluorophenyl)-3-methyl-2-oxopiperidine-3-carboxamide], the figures for the IC50 at c-Met kinase and in the test on MKN45 cells were 0.0112 ± 0.0041 µM and 0.65 ± 0.13 µM, respectively. As for `Nc1nccc(Oc2ccc(NC(=O)C3CCCN(c4ccc(F)cc4)C3=O)cc2F)n1` (centres unmarked) [Compound 19a, N-(4-((2-aminopyrimidin-4-yl)oxy)-3-fluorophenyl)-1-(4-fluorophenyl)-2-oxopiperidine-3-carbox-amide], the inhibition at 1 µM on c-Met kinase (setting [1]) worked out at 27.5%. Moreover, the inhibition at 10 µM at c-Met kinase (setting [2]) is 59.1%.

With `COc1cc2nccc(Oc3ccc(NC(=O)C4(Cl)CCCN(c5ccc(F)cc5)C4=O)cc3F)c2cc1OC` (centres unmarked) [Compound 20b, 3-Chloro-N-(4-((6,7-dimethoxyquinolin-4-yl)oxy)-3-fluorophenyl)-1-(4-fluorophenyl)-2-oxopiperidine-3-carboxamide], inhibition in the test on MKN45 cells was half-maximal at 0.57 ± 0.04 µM (IC50). Consider `Nc1nccc(Oc2ccc(NC(=O)C3(Cl)CCCN(c4ccc(F)cc4)C3=O)cc2F)n1` (centres unmarked) [Compound 19b, N-(4-((2-aminopyrimidin-4-yl)oxy)-3-fluorophenyl)-3-chloro-1-(4-fluorophenyl)-2-oxopiperidine-3-carboxamide], for which, on c-Met kinase (setting [1]), the inhibition at 1 µM came to 28.3%. The inhibition at 10 µM at c-Met kinase (setting [2]) stood at 52.5%. With `CCOc1ccn(-c2ccc(F)cc2)c(=O)c1C(=O)Nc1ccc(Oc2ccnc(N)c2Cl)c(F)c1` [BMS-777607, N-(4-(2-amino-3-chloropyridin-4-yloxy)-3-fluorophenyl)-4-ethoxy-1-(4-fluorophenyl)-2-oxo-1,2-dihydropyridine-3-carboxamide, reference compound], the values for the IC50 on c-Met kinase, with MKN45 cells and in the test on c-Met were 0.0037 ± 0.0013 µM, 0.29 ± 0.02 µM and 0.0039 µM, respectively. With `COc1ccc(CNc2nccc(Oc3ccc(NC(=O)C4CCCN(c5ccc(F)cc5)C4=O)cc3F)n2)cc1` (centres unmarked) [Compound 18a, N-(3-fluoro-4-((2-((4-methoxybenzyl)amino)pyrimidin-4-yl)oxy)phenyl)-1-(4-fluorophenyl)-2-oxo-piperidine-3-carboxamide], the inhibition at 10 µM at c-Met kinase (setting [2]) came out at 28.4%. Same read-out and setting: with `COc1ccc(CNc2nccc(Oc3ccc(NC(=O)C4(Cl)CCCN(c5ccc(F)cc5)C4=O)cc3F)n2)cc1` (centres unmarked) [Compound 18b, 3-Chloro-N-(3-fluoro-4-((2-((4-methoxybenzyl)amino)pyrimidin-4-yl)oxy)phenyl)-1-(4-fluorophenyl)-2-oxopiperidine-3-carboxamide] the figure was 10%; with `NC(=O)c1nccc(Oc2ccc(NC(=O)C3CCCN(c4ccc(F)cc4)C3=O)cc2F)c1Cl` (centres unmarked) [Compound 15a, 3-Chloro-4-(2-fluoro-4-(1-(4-fluorophenyl)-2-oxopiperidine-3-carboxamido)phenoxy)picolinamide], 63.9%.
